In PubChem BioAssay (NCI):
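In this assay, cells in 96-well plates receive the compound at five concentrations for 48 hours. Endpoints are linearly interpolated between the surrounding concentrations. TGI: concentration producing complete growth inhibition.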

Experiments:
Test in all cases: inhibition of tumour cell growth, NCI panel, 48 h
OVCAR-5 ovarian = test system: OVCAR-5 ovarian
SNB-19 CNS = test system: SNB-19 CNS
K-562 leukemia = test system: K-562 leukemia
HOP-92 NSCLC = test system: HOP-92 NSCLC
SK-MEL-2 melanoma = test system: SK-MEL-2 melanoma
HCT-15 colon = test system: HCT-15 colon
NCI/ADR-RES ovarian = test system: NCI/ADR-RES ovarian
COLO 205 colon = test system: COLO 205 colon
BT-549 breast = test system: BT-549 breast
LOX IMVI melanoma = test system: LOX IMVI melanoma
UO-31 renal = test system: UO-31 renal
EKVX NSCLC = test system: EKVX NSCLC
SK-OV-3 ovarian = test system: SK-OV-3 ovarian
OVCAR-4 ovarian = test system: OVCAR-4 ovarian
SW-620 colon = test system: SW-620 colon
IGROV1 ovarian = test system: IGROV1 ovarian
SF-295 CNS = test system: SF-295 CNS
HL-60(TB) leukemia = test system: HL-60(TB) leukemia
ACHN renal = test system: ACHN renal
HT29 colon = test system: HT29 colon
KM12 colon = test system: KM12 colon
NCI-H522 lung = test system: NCI-H522 lung
MALME-3M melanoma = test system: MALME-3M melanoma
SF-539 CNS = test system: SF-539 CNS
M14 melanoma = test system: M14 melanoma
RXF 393 renal = test system: RXF 393 renal
OVCAR-8 ovarian = test system: OVCAR-8 ovarian
SNB-75 CNS = test system: SNB-75 CNS
A549 NSCLC = test system: A549 NSCLC
786-0 renal = test system: 786-0 renal
CCRF-CEM leukemia = test system: CCRF-CEM leukemia
PC-3 prostate = test system: PC-3 prostate
T-47D breast = test system: T-47D breast
NCI-H226 lung = test system: NCI-H226 lung
MDA-MB-435 = test system: MDA-MB-435
A498 renal = test system: A498 renal
HCC-2998 colon = test system: HCC-2998 colon
NCI-H23 lung = test system: NCI-H23 lung
DU-145 prostate = test system: DU-145 prostate
OVCAR-3 ovarian = test system: OVCAR-3 ovarian
NCI-H460 lung = test system: NCI-H460 lung
RPMI-8226 leukemia = test system: RPMI-8226 leukemia
MOLT-4 leukemia = test system: MOLT-4 leukemia
SF-268 CNS = test system: SF-268 CNS
CAKI-1 renal = test system: CAKI-1 renal
SK-MEL-28 melanoma = test system: SK-MEL-28 melanoma
SK-MEL-5 melanoma = test system: SK-MEL-5 melanoma
UACC-257 melanoma = test system: UACC-257 melanoma
HCT-116 colon = test system: HCT-116 colon
MDA-N = test system: MDA-N
HOP-62 NSCLC = test system: HOP-62 NSCLC
TK-10 renal = test system: TK-10 renal
SR leukemia = test system: SR leukemia
MDA-MB-231 breast = test system: MDA-MB-231 breast
HS 578T breast = test system: HS 578T breast
SN12C renal = test system: SN12C renal
UACC-62 melanoma = test system: UACC-62 melanoma
MCF7 breast = test system: MCF7 breast
U251 CNS = test system: U251 CNS
SNB-78 CNS = test system: SNB-78 CNS
HOP-18 NSCLC = test system: HOP-18 NSCLC
DMS 114 small cell lung = test system: DMS 114 small cell lung
M19-MEL melanoma = test system: M19-MEL melanoma
DLD-1 colon = test system: DLD-1 colon
KM20L2 colon = test system: KM20L2 colon
DMS 273 small cell lung = test system: DMS 273 small cell lung
LXFL 529 NSCLC = test system: LXFL 529 NSCLC

## Cc1ccc([N+](=O)[O-])cc1S(=O)(=O)Nc1ccc(C2=NOC(c3ccccc3O)C2)cc1 (stereo not drawn)
OVCAR-5 ovarian
  TGI: > 100 µM
SNB-19 CNS
  TGI: 17.7 µM
K-562 leukemia
  TGI: > 100 µM
HOP-92 NSCLC
  TGI: > 100 µM
SK-MEL-2 melanoma
  TGI: > 100 µM
HCT-15 colon
  TGI: 85.3 µM
NCI/ADR-RES ovarian
  TGI: 8.53 µM
COLO 205 colon
  TGI: 19.8 µM
BT-549 breast
  TGI: 60.3 µM
LOX IMVI melanoma
  TGI: > 100 µM
UO-31 renal
  TGI: 1.34 µM
EKVX NSCLC
  TGI: > 100 µM
SK-OV-3 ovarian
  TGI: > 100 µM
OVCAR-4 ovarian
  TGI: 22.4 µM
SW-620 colon
  TGI: > 100 µM
IGROV1 ovarian
  TGI: > 100 µM
SF-295 CNS
  TGI: > 100 µM
HL-60(TB) leukemia
  TGI: 21.4 µM
ACHN renal
  TGI: > 100 µM
HT29 colon
  TGI: 30.8 µM
KM12 colon
  TGI: 38.2 µM
NCI-H522 lung
  TGI: 6.4 µM
MALME-3M melanoma
  TGI: > 100 µM
SF-539 CNS
  TGI: > 100 µM
M14 melanoma
  TGI: 6.85 µM
RXF 393 renal
  TGI: 11.1 µM
OVCAR-8 ovarian
  TGI: > 100 µM
SNB-75 CNS
  TGI: 55.2 µM
A549 NSCLC
  TGI: 71.8 µM
786-0 renal
  TGI: > 100 µM
CCRF-CEM leukemia
  TGI: > 100 µM
PC-3 prostate
  TGI: > 100 µM
T-47D breast
  TGI: > 100 µM
NCI-H226 lung
  TGI: > 100 µM
MDA-MB-435
  TGI: 3.22 µM
A498 renal
  TGI: 32.6 µM
HCC-2998 colon
  TGI: 24.8 µM
NCI-H23 lung
  TGI: 98.4 µM
DU-145 prostate
  TGI: > 100 µM
OVCAR-3 ovarian
  TGI: 24.1 µM
NCI-H460 lung
  TGI: 25.3 µM
RPMI-8226 leukemia
  TGI: > 100 µM
MOLT-4 leukemia
  TGI: 9.04 µM
SF-268 CNS
  TGI: > 100 µM
CAKI-1 renal
  TGI: > 100 µM
SK-MEL-28 melanoma
  TGI: > 100 µM
SK-MEL-5 melanoma
  TGI: 49.4 µM
UACC-257 melanoma
  TGI: > 100 µM
HCT-116 colon
  TGI: 34.5 µM
MDA-N
  TGI: 4.17 µM
HOP-62 NSCLC
  TGI: > 100 µM
TK-10 renal
  TGI: > 100 µM
SR leukemia
  TGI: 13.4 µM
MDA-MB-231 breast
  TGI: > 100 µM
HS 578T breast
  TGI: > 100 µM
SN12C renal
  TGI: > 100 µM
UACC-62 melanoma
  TGI: 98.9 µM
MCF7 breast
  TGI: 14 µM

## C[N+](C)(C)CCN[N+]1(C)CCCc2ccccc21 (stereo not drawn)
OVCAR-5 ovarian
  TGI: > 100 µM
SNB-19 CNS
  TGI: > 100 µM
K-562 leukemia
  TGI: > 100 µM
HOP-92 NSCLC
  TGI: > 100 µM
SK-MEL-2 melanoma
  TGI: > 100 µM
HCT-15 colon
  TGI: > 100 µM
NCI/ADR-RES ovarian
  TGI: > 100 µM
COLO 205 colon
  TGI: > 100 µM
BT-549 breast
  TGI: > 100 µM
LOX IMVI melanoma
  TGI: > 100 µM
UO-31 renal
  TGI: > 100 µM
EKVX NSCLC
  TGI: > 100 µM
SK-OV-3 ovarian
  TGI: > 100 µM
OVCAR-4 ovarian
  TGI: > 100 µM
SW-620 colon
  TGI: > 100 µM
IGROV1 ovarian
  TGI: > 100 µM
SF-295 CNS
  TGI: > 100 µM
HL-60(TB) leukemia
  TGI: > 100 µM
ACHN renal
  TGI: > 100 µM
HT29 colon
  TGI: > 100 µM
KM12 colon
  TGI: > 100 µM
NCI-H522 lung
  TGI: 40.3 µM
MALME-3M melanoma
  TGI: 50.3 µM
SF-539 CNS
  TGI: > 100 µM
M14 melanoma
  TGI: > 100 µM
RXF 393 renal
  TGI: > 100 µM
OVCAR-8 ovarian
  TGI: > 100 µM
SNB-75 CNS
  TGI: > 100 µM
A549 NSCLC
  TGI: > 100 µM
786-0 renal
  TGI: > 100 µM
PC-3 prostate
  TGI: > 100 µM
T-47D breast
  TGI: > 100 µM
NCI-H226 lung
  TGI: > 100 µM
MDA-MB-435
  TGI: > 100 µM
A498 renal
  TGI: 35.1 µM
HCC-2998 colon
  TGI: > 100 µM
NCI-H23 lung
  TGI: > 100 µM
DU-145 prostate
  TGI: > 100 µM
OVCAR-3 ovarian
  TGI: > 100 µM
NCI-H460 lung
  TGI: > 100 µM
RPMI-8226 leukemia
  TGI: 92.9 µM
MOLT-4 leukemia
  TGI: 90.6 µM
SF-268 CNS
  TGI: > 100 µM
CAKI-1 renal
  TGI: > 100 µM
SK-MEL-28 melanoma
  TGI: > 100 µM
SK-MEL-5 melanoma
  TGI: > 100 µM
UACC-257 melanoma
  TGI: > 100 µM
HCT-116 colon
  TGI: > 100 µM
MDA-N
  TGI: > 100 µM
HOP-62 NSCLC
  TGI: > 100 µM
TK-10 renal
  TGI: > 100 µM
U251 CNS
  TGI: > 100 µM
SR leukemia
  TGI: > 100 µM
MDA-MB-231 breast
  TGI: > 100 µM
HS 578T breast
  TGI: > 100 µM
SN12C renal
  TGI: > 100 µM
UACC-62 melanoma
  TGI: > 100 µM
MCF7 breast
  TGI: > 100 µM

## COc1ccc(/C=C2\CCC(Cc3ccccc3)(CN(C)C)C2=O)cc1 (stereo not drawn)
OVCAR-5 ovarian
  TGI: > 100 µM
SNB-19 CNS
  TGI: > 100 µM
K-562 leukemia
  TGI: 78 µM
HOP-92 NSCLC
  TGI: > 100 µM
SNB-78 CNS
  TGI: > 100 µM
SK-MEL-2 melanoma
  TGI: > 100 µM
HCT-15 colon
  TGI: > 70.7 µM
NCI/ADR-RES ovarian
  TGI: > 100 µM
COLO 205 colon
  TGI: > 74.8 µM
HOP-18 NSCLC
  TGI: > 100 µM
DMS 114 small cell lung
  TGI: 48.6 µM
BT-549 breast
  TGI: > 100 µM
LOX IMVI melanoma
  TGI: 57.5 µM
UO-31 renal
  TGI: > 100 µM
EKVX NSCLC
  TGI: > 100 µM
SK-OV-3 ovarian
  TGI: > 100 µM
OVCAR-4 ovarian
  TGI: > 100 µM
SW-620 colon
  TGI: > 73.3 µM
IGROV1 ovarian
  TGI: > 100 µM
SF-295 CNS
  TGI: > 100 µM
HL-60(TB) leukemia
  TGI: 55.3 µM
ACHN renal
  TGI: > 100 µM
HT29 colon
  TGI: > 87.8 µM
KM12 colon
  TGI: > 100 µM
NCI-H522 lung
  TGI: > 71.9 µM
MALME-3M melanoma
  TGI: > 100 µM
SF-539 CNS
  TGI: > 100 µM
M19-MEL melanoma
  TGI: 70.7 µM
DLD-1 colon
  TGI: > 100 µM
M14 melanoma
  TGI: 66.2 µM
RXF 393 renal
  TGI: > 72.9 µM
KM20L2 colon
  TGI: 59.6 µM
OVCAR-8 ovarian
  TGI: > 100 µM
SNB-75 CNS
  TGI: > 100 µM
A549 NSCLC
  TGI: > 100 µM
786-0 renal
  TGI: > 100 µM
CCRF-CEM leukemia
  TGI: 72.3 µM
PC-3 prostate
  TGI: > 100 µM
T-47D breast
  TGI: > 100 µM
NCI-H226 lung
  TGI: > 96.3 µM
MDA-MB-435
  TGI: > 100 µM
A498 renal
  TGI: > 100 µM
DMS 273 small cell lung
  TGI: 32.5 µM
HCC-2998 colon
  TGI: > 100 µM
LXFL 529 NSCLC
  TGI: > 100 µM
NCI-H23 lung
  TGI: > 100 µM
DU-145 prostate
  TGI: > 100 µM
OVCAR-3 ovarian
  TGI: > 100 µM
NCI-H460 lung
  TGI: > 100 µM
RPMI-8226 leukemia
  TGI: 62.9 µM
MOLT-4 leukemia
  TGI: > 81.2 µM
SF-268 CNS
  TGI: > 100 µM
CAKI-1 renal
  TGI: > 100 µM
SK-MEL-28 melanoma
  TGI: > 100 µM
SK-MEL-5 melanoma
  TGI: 44.8 µM
UACC-257 melanoma
  TGI: 66.2 µM
HCT-116 colon
  TGI: > 100 µM
MDA-N
  TGI: > 100 µM
HOP-62 NSCLC
  TGI: > 100 µM
TK-10 renal
  TGI: > 100 µM
U251 CNS
  TGI: > 100 µM
SR leukemia
  TGI: 54 µM
MDA-MB-231 breast
  TGI: > 100 µM
HS 578T breast
  TGI: > 100 µM
SN12C renal
  TGI: > 100 µM
UACC-62 melanoma
  TGI: > 76.9 µM
MCF7 breast
  TGI: > 100 µM
